{"source": "patent US20210260051A1", "about": "“COMBINATION OF EZH2 INHIBITOR AND CHECKPOINT THERAPY FOR THE TREATMENT OF CANCER” (Board of Regents, The University of Texas System, priority 2018, published 2021)", "key": {"[1]": {"test_system": "CXCL9 and CXCL10 in MB49 tumor", "assay": "relative CXCL9 and CXCL10 expression in tumor of MB49 tumor-bearing mice", "format": "in vivo, mouse", "conditions": "FIG. 10C-D"}, "MB49 (bladder) tumor": {"test_system": "MB49 (bladder) tumor", "assay": "MB49 tumor-bearing C57BL/6 mice", "format": "in vivo", "description": "FIGS. 3A-3F: Blocking expression of EZH2 mediated by anti-CTLA-4 using CPI-1205 increases the effectiveness of anti-CTLA-4 therapy. Tumor growth (FIG. 3A), survival (FIG. 3B) and percentages of intra-tumoral CD4^+CD25^+FoxP3^+ regulatory T cells, CD4^+ICOS^+T-bet^+ and CD8^+IFNγ^+ cells (FIG. 3C) in MB49 tumor-bearing mice treated with vehicle, anti CTLA-4, CPI-1205, or the combination. Tumor growth (FIG. 3D) and percentages of CD4^+IFNγ^+ cells and CD8^+TNFα^+ cells in the lymph nodes (LN) (FIG. 3E) of MB49 tumor-bearing Ezh2^fl/+ and FoxP3^CreEzh2^fl/fl mice treated with anti-CTLA-4 on days 7 and 9. (FIG. 3F) Tumor growth and survival of MB49 tumor-bearing Rag-1^−/− mice treated with vehicle or CPI-1205. Data are representative of three independent experiments (n=10 in each group; one-way ANOVA was used to determine significance between the groups. **p<0.01).\nIt was evaluated whether the combination of anti-CTLA-4 with CPI-1205 increases the effectiveness of anti-CTLA-4. MB49 (bladder) and B 16-F10 (melanoma) tumor-bearing C57BL/6 mice were treated with anti-CTLA-4 and the EZH2 inhibitor CPI-1205 as monotherapies and in combination.\nCell lines and tumor model. Murine bladder cancer cell line (MB49) were provided by Dr. A. Kamat (at The University of Texas MD Anderson Cancer Center) and murine melanoma cell line B16-F10 was obtained from Dr. I. Fidler (The University of Texas MD Anderson Cancer Center). 2×10^5 (MB49) or 2×10^5 (B16-F10) cells were injected subcutaneously or intradermally respectively, in the flanks of C57BL/6 mice (5 or 10 mice per group). […]\nTissue processing and flow cytometry. […] Staining with intracellular anti-Foxp3 (eBioscience, FJK-16 s), […] (eBioscience, PC61.5), antiKi-67 (eBioscience, SolA15), antiIFN-γ (BioLegend, XMG1.2), anti-TNF-α (BioLegend, MP6-XT22), and anti-EZH2 (Cell Signaling Technology, D2C9) were analyzed by flow cytometry according to the manufacturers’ instructions. Flow cytometry data were acquired on BD LSR II (BD Biosciences) and analyzed using FlowJo software (Tree Star, Ashland, Oreg.)."}, "[2]": {"test_system": "murine inducible regulatory T cell (iTreg) differentiation", "assay": "in vitro differentiation of murine naïve CD4 T cells into inducible regulatory T cells with EZH2 inhibitors", "format": "cell-based, mouse", "conditions": "compared with the other EZH2 inhibitors; FIG. 4A", "description": "FIGS. 4A-B: (FIG. 4A) Percentages of inducible regulatory T cells following in vitro differentiation of murine naïve CD4 T cells into regulatory T cells in the presence and absence of various EZH2 inhibitors. (FIG. 4B) Representative counts of viable cells in culture following treatment with EZH2 inhibitors. Data is representative of three independent experiments. One-way ANOVA was used to determine significance between the groups. **p<0.01.\nTo investigate whether the data observed in the FoxP3^creEZH2^fl/fl mouse model could be recapitulated by pharmacological inhibition of EZH2 in T cells, the effect of different EZH2 inhibitors on regulatory T cell differentiation was compared. CPI-1205 was compared with commercially available EZH2 inhibitors.\nIn vitro T cell assays. Human peripheral regulatory T cells were isolated from peripheral blood mononuclear cells by enriching for CD4^+CD127^low CD25^+ cells using the EasySep Human Regulatory T Cell Isolation Kit (STEMCELL Technologies, Cambridge, Mass.). For mouse in vitro regulatory T cell differentiation, CD4^+CD25^low CD44^low CD62L^hinaïve splenic T cells were isolated from C57BL/6 mice using BD FACSAria (BD Biosciences, San Jose, Calif.). The cells were then differentiated in the presence of recombinant murine IL-2 (R&D, 402-ML), tumor growth factor-β (TGF-β, R&D 7666-MB), CPI-1205 or dimethyl sulfoxide (DMSO) and cultured for 6 days."}, "[3]": {"test_system": "Nalm-6 target tumor cells", "assay": "T cell cytotoxicity assay", "format": "cell-based, human", "conditions": "in vitro", "protocol": "T cell cytotoxicity assay was carried out using activated effector T cells (isolated with EasySep Human Naïve CD4^+ T Cell Isolation Kit and EasySep Human CD8^+ T Cell Enrichment Kit; STEMCELL Technologies). Purified naïve CD4 and total CD8 T cells were pre-activated with plate-bound anti-CD3/soluble anti-CD28 for 6 days in the presence or absence of CPI-1205. Activated T cells were then washed and challenged with Nalm-6 target tumor cells, then labeled with CellTrace violet to enable their subsequent discrimination from effector cells. The T cell:tumor cell co-cultures were conducted at different effector:target (E:T) ratios, in the presence of the blinatumomab antibody (10 ng/ml) and CPI-1205 for 20 hours as previously described (3). Target cell death was determined by summing the percentage of apoptotic (Annexin V^+) and dead or dying (7AAD+) target (CellTrace violet^+) cells after overnight culture."}}, "data": [{"smiles": "COc1cc(C)[nH]c(=O)c1CNC(=O)c1c(C)n([C@H](C)C2CCN(CC(F)(F)F)CC2)c2ccccc12", "note": "[CPI-1205, N-[(4-methoxy-6-methyl-2-oxo-1H-pyridin-3-yl)methyl]-2-methyl-1-[(1R)-1-[1-(2,2,2-trifluoroethyl)piperidin-4-yl]ethyl]indole-3-carboxamide]", "values": [{"measurement": "CXCL9 expression in tumor", "setting": "[1]", "value": "increased"}, {"measurement": "CXL10 expression in tumor", "setting": "[1]", "value": "increased"}, {"measurement": "proportion of tumor-infiltrating cytotoxic T cells", "setting": "MB49 (bladder) tumor; in vivo in the murine model (model not named)", "value": "enhanced"}, {"measurement": "B cell abundance", "setting": "MB49 (bladder) tumor; model not named", "value": "no difference"}, {"measurement": "myeloid cells", "setting": "MB49 (bladder) tumor; model not named", "value": "effected certain subsets"}, {"measurement": "suppression of murine inducible regulatory T cell (iTreg) differentiation", "setting": "[2]", "value": "most striking effect"}, {"measurement": "cytotoxicity of human effector T cells", "setting": "[3]", "value": "enhanced"}]}]}
